“Also recorded” adds a separate entry of the source. Like-named read-outs stand apart in the source and are kept apart here.
Key:
[1] = test system: human umbilical vein endothelial cells (HUVEC); assay: Matrigel-based tube formation (angiogenesis) assay; assay type: cell-based; conditions: HUVEC in Matrigel
[2] = test system: MDA-MB-231 cells; assay: MTT proliferation assay; assay type: cell-based, human; conditions: read-out: IC50 of cell proliferation (MTT)
Method: Proliferation Assay. The procedure consisted of culturing cells at 37° C. in 10% FBS-DMEM medium containing various amounts of compound. 5 mM compound stock in 100% DMSO was 1:50 diluted in medium, filtered, and serially diluted in 96-well plate. Then seeded cells were incubated for 3 days. Viable cells were quantified by MTT assay at absorbance of 570 and 630 nm.
(§1) FIGS. 4A-4D show inhibition of MDA-MB-231 proliferation and mechanism of cell killing. To gain insight into the mechanism by which these compounds are inhibiting growth, a flow cytometry analysis with annexin V-FITC and PI staining was performed. The level of apoptotic cells in MDA-MB-231 was assessed by the percentage of Annexin V-positive/PI-negative cells present after exposure of MDAMB-231 cells to increasing concentration of IPR-69 for 24 h (FIG. 4B). At a concentration of 50 μM, IPR-69 induced significant apoptosis as evidenced by a 51% and 21% increase in apoptotic cells (Annexin V positive/PI-negative) and necrotic cells (Annexin V-positive/PI-positive), respectively. […] At a concentration of 50 μM, 26% of cells were necrotic (Annexin V positive/PI-positive), a 22% increase over control. 46% of cells were apoptotic (Annexin V positive/PInegative), compared with 4% of control.

[3] = test system: MDA-MB-231 cells; assay: Apoptosis assay, flow cytometry with Annexin V-FITC and PI staining; assay type: cell-based, human; conditions: 50 μM
Method: Apoptosis Assay. MDA-MB-231 cells were cultured in DMEM medium supplemented with 10% FBS, 100 IU/mL penicillin and 50 μg/mL streptomycin in a humidified atmosphere containing 5% CO2 at 37° C. and grew to 80-90% confluence in P-60 mm plates, then treated with various amounts of compounds or 1% DMSO (as control) for different time points. Collected the supernatants and washed the cells with 1×PBS twice and collected. The cells were detached by using cellstripper (Mediatech Inc, VA), and washed twice with cold 1× PBS and resuspended in 1× binding buffer (Cat. PNN1001, Invitrogen Corporation, Camarillo, Calif.) at a concentration of 1×10^6 cells/mL. Transferred 100 μL of the solution (1×10^5 cells) to a 5 mL culture tube. Added 5 μL of Recombinant Human Annexin V FITC conjugate (Cat. ANNEXINV01, Invitrogen) and 5 μL of propidium iodide solution (Cat. P4864, Sigma-Aldrich, St. Louis, Mo.). Gently vortexed the cells and incubated for 15 min at room (25° C.) in the dark. Added 400 μL of 1× binding buffer to each tube. Analyzed by flow cytometry (FACScan).
as §1

[4] = test system: phospho-p44/42 MAPK; assay: Immunoblot of MAPK phosphorylation in MDA-MB-231 cells; assay type: cell-based, human; conditions: 100 μM, 30 minutes
Method: Immunoblots. MDA-MB-231 cells treated with 100 μM of compound(s)/1% DMSO for 30 min. Harvested cell lysates in RIPA buffer supplemented with protease inhibitors and phosphatase inhibitors. Under non-reducing condition equal amounts of protein were loaded per lane and separated in 4-12% NuPAGE gel (Invitrogen) at 200 V for 60 minutes, then transferred to Nitrocellulose membrane at 30 V for one hour using XCell II blot module. […] Secondary antibody: goat anti-rabbit IgG HRP 1:3000 in 5% non-fat milk-TBST at room for 1 hour. The protein bands were visualized using Immobilon Western Chemiluminescent HRP Substrate (WBKLS0100, Millipore, Billerica, Mass.). Fibronectin (Sigma, F2006) […] coated in 6-well plates overnight. MDA-MB-231serum-starved for 4 hours and then seeded in FN coated 6-well plates and treated with 5,10, 20 and 40 μM compound(s)/1% DMSO for 30 min, cells were lysated in RIPA buffer supplemented with protease inhibitors and phosphatase inhibitors. Then IB with phospho-p44/42 MAPK (Thr202/Tyr204), p44/42 MAPK; phospho-FAK (Tyr397), FAK; phospho-Src family (Tyr416), Src, respectively.
A concentration-dependent study was subsequently carried out for IPR-1 (FIG. 6B). […] The effect of the compound also was studied in two other signaling pathways including FAK and Src. FAK is constitutively associated with β-integrin subunits of integrin receptors.

[5] = test system: salmon sperm DNA; assay: Fluorescent Intercalator Displacement assay (ethidium bromide); assay type: binding; design: displacement of ethidium bromide: dose or concentration left out as unconfirmed; conditions: for displacement of ethidium bromide: […] μM; for DNA binding: three concentrations tested
Method: Finally, DNA binding by these three compounds was assessed. DNA binding is often a reflection of non-specificity, which can lead to adverse side effects. The well-established Fluorescent Intercalator Displacement assay by Tse et al.^43 that measures displacement of ethidium bromide, a known intercalator of DNA was used. In this assay, ethidium bromide (EB) bound to the salmon sperm DNA.

[6] = Homo sapiens, MDA-MB-231, MDA-MB-231

Cc1cc(C)cc(NC(=O)c2cnn(-c3ccc(C(C)C)cc3)c2C2CCNCC2)c1 [IPR-69, N-(3,5-dimethylphenyl)-1-(4-isopropylphenyl)-5-(piperidin-4-yl)-1H-pyrazole-4-carboxamide]
IC50 [1]: 3 µM
IC50 [2, 6]: 18 µM
IC50 ([2]; MDA-MB-231): 17 µM
increase in necrotic cells (Annexin V-positive/PI-positive) [3]: 21%
increase in apoptotic cells (Annexin V positive/PI-negative) ([3]; 24 h): 51%
effect on MAPK phosphorylation [4]: abrogated phosphorylation, but the effects were weaker than IPR-9
displacement of ethidium bromide [5]: less than 10%
DNA binding [5]: not strongly affected; also recorded: no DNA binding

CN(C)c1ccc(CNCCC(Cc2ccccc2)c2ccc3c(c2)OCO3)cc1 (racemic) [IPR-9, 4-(((3-(benzo[d][1,3]dioxol-5-yl)-4-phenylbutyl)amino)methyl)-N,Ndimethylaniline]
IC50 [1]: 3 µM
IC50 [2, 6]: 6 µM
increase in necrotic cells (Annexin V-positive/PI-positive) [3]: 22%
apoptotic cells (Annexin V positive/PI-negative) ([3]; percent of cells): 46%
necrotic cells (Annexin V positive/PI-positive) ([3]; percent of cells): 26%
effect on MAPK phosphorylation [4]: significant impairment
displacement of ethidium bromide [5]: 30%
DNA binding [5]: not strongly affected

From patent US9745288B2, “Compounds and methods for treating cancer by inhibiting the urokinase receptor” (Indiana University Research and Technology Corporation, priority 2011, dated 2017)
